The values below are quoted from earlier work in PubChem BioAssay AID1259409 (Chemical Carcinogenesis Research Information System (CCRIS), 2018).

*1 amine or outer side, *2 acyl side, *3 side chain or, on linkers, in order; H or OH if unused. Where a SMILES comes first, the peptide text is derived from it. [ ]: non-standard residue; d: D form. X1 = O=C(C(N[*:1])c1ccc(OS(=O)(=O)O)cc1)[*:2]

The series relates to rodent chemically induced tumor inhibition, incidence and multiplicity. As to the kind of experiment: CCRIS tumor inhibitor studies. The note with it: Carcinogen: N-NITROSOBIS(2-OXOPROPYL)AMINE, 60599-38-4, Route [Inhibitor]: SUBCUTANEOUS, Species: HAMSTER, Strain/Sex: SYRIAN/MALE, FEMALE, Promoter: NONE USED.

Consider `CCC(C)C(NC(=O)C(CCCNC(=N)N)NC(=O)C(Cc1c[nH]cn1)NC(=O)C(CO)NC(=O)C1CCCN1C(=O)C(CC(=O)O)NC(=O)C(CC(C)C)NC(=O)C(CC(N)=O)NC(=O)C(CCC(N)=O)NC(=O)C(CC(C)C)NC(=O)C(CC(N)=O)NC(=O)C(CCCCN)NC(=O)C(NC(=O)C(NC(=O)C(CO)NC(=O)C(CCSC)NC(=O)C(CCCNC(=N)N)NC(=O)CNC(=O)C(CO)NC(=O)C1CCCN1C(=O)C(C)NC(=O)C(N)CCCCN)C(C)CC)C(C)C)C(=O)NC(CO)C(=O)NC(CC(=O)O)C(=O)NC(CCCNC(=N)N)C(=O)NC(CC(=O)O)C(=O)NC(C(=O)NC(CCSC)C(=O)NCC(=O)NC(Cc1c[nH]c2ccccc12)C(=O)NC(CCSC)C(=O)NC(CC(=O)O)C(=O)NC(Cc1ccccc1)C(N)=O)c1ccc(OS(=O)(=O)O)cc1` (stereo not given) (H-KAPSGRMSIVKNLQNLDPSHRISDRD[X1]MGWMDF-NH2; configuration not given here), for which the “tumour outcome (control, treated, inhibition, significance)” value was 21/40 (52%), 10/37 (27%), 48%, p<0.05 (Dose [Inhibitor]: 20 IDU/KG BW 6/D FOR 15 WK FIRST DOSE GIVEN 3 HR POST CARCINOGEN DOSE (STUDY DURATION: 46 WK), Target Tissue: Type of Lesion: PANCREAS: DUCTAL/DUCTULAR CARCINOMA, Dose [Carcinogen]: 20 MG/KG BW IN PHYSIOLOGICAL SALINE ONCE); 31/40 (78%), 22/37 (59%), 24%, not calculated (Dose [Inhibitor]: 20 IDU/KG BW 6/D FOR 15 WK FIRST DOSE GIVEN 3 HR POST CARCINOGEN DOSE (STUDY DURATION: 46 WK), Target Tissue: Type of Lesion: PANCREAS: DUCTULAR ADENOMA, Dose [Carcinogen]: 20 MG/KG BW IN PHYSIOLOGICAL SALINE ONCE); 37/40 (92%), 35/37 (95%), -3%, not calculated (Dose [Inhibitor]: 20 IDU/KG BW 6/D FOR 15 WK FIRST DOSE GIVEN 3 HR POST CARCINOGEN DOSE (STUDY DURATION: 46 WK), Target Tissue: Type of Lesion: PANCREAS: DUCTULAR PROLIFERATION, Dose [Carcinogen]: 20 MG/KG BW IN PHYSIOLOGICAL SALINE ONCE); 21/40 (52%), 17/39 (44%), 15%, not calculated (Dose [Inhibitor]: 20 IDU/KG BW INJECTED AT 30 MIN INTERVALS FOR 6 DOSES, FIRST DOSE GIVEN 3 HR POST CARCINOGEN DOSE (STUDY DURATION: 46 WK, Target Tissue: Type of Lesion: PANCREAS: DUCTAL/DUCTULAR CARCINOMA, Dose [Carcinogen]: 20 MG/KG BW IN PHYSIOLOGICAL SALINE ONCE); 37/40 (92%), 37/39 (95%), -3%, not calculated (Dose [Inhibitor]: 20 IDU/KG BW INJECTED AT 30 MIN INTERVALS FOR 6 DOSES, FIRST DOSE GIVEN 3 HR POST CARCINOGEN DOSE (STUDY DURATION: 46 WK, Target Tissue: Type of Lesion: PANCREAS: DUCTULAR PROLIFERATION, Dose [Carcinogen]: 20 MG/KG BW IN PHYSIOLOGICAL SALINE ONCE); 17/25 (68%), 20/25 (80%), -18%, not calculated (Dose [Inhibitor]: 20 IDU/KG BW INJECTED AT 30 MIN INTERVALS FOR 6 DOSES, FIRST DOSE GIVEN 3 HR POST EACH CARCINOGEN DOSE (STUDY DURATION:, Target Tissue: Type of Lesion: PANCREAS: DUCTAL ADENOMA, Dose [Carcinogen]: 2.5 MG/KG BW IN PHYSIOLOGICAL SALINE 1/WK FOR 20 WK). The “tumour outcome (control, treated, inhibition, significance)” value reads like this: (Dose [Inhibitor]: 20 IDU/KG BW INJECTED AT 30 MIN INTERVALS FOR 6 DOSES, FIRST DOSE GIVEN 3 HR POST EACH CARCINOGEN DOSE (STUDY DURATION:, Target Tissue: Type of Lesion: PANCREAS: DUCTAL PROLIFERATION, Dose [Carcinogen]: 2.5 MG/KG BW IN PHYSIOLOGICAL SALINE 1/WK FOR 20 WK) 22/25 (88%), 23/25 (92%), -5%, not calculated; (Dose [Inhibitor]: 20 IDU/KG BW INJECTED AT 30 MIN INTERVALS FOR 6 DOSES, FIRST DOSE GIVEN 3 HR POST EACH CARCINOGEN DOSE (STUDY DURATION:, Target Tissue: Type of Lesion: PANCREAS: DUCTAL/DUCTULAR CARCINOMA, Dose [Carcinogen]: 2.5 MG/KG BW IN PHYSIOLOGICAL SALINE 1/WK FOR 20 WK) 15/25 (60%), 23/25 (92%), -53%, not calculated; (Dose [Inhibitor]: 20 IDU/KG BW INJECTED AT 30 MIN INTERVALS FOR 6 DOSES, FIRST DOSE GIVEN SIMULTANEOUSLY WITH CARCINOGEN DOSE (STUDY DURAT, Target Tissue: Type of Lesion: PANCREAS: DUCTAL/DUCTULAR CARCINOMA, Dose [Carcinogen]: 20 MG/KG BW IN PHYSIOLOGICAL SALINE ONCE) 21/40 (52%), 5/39 (13%), 75%, p<0.001; (Dose [Inhibitor]: 20 IDU/KG BW INJECTED AT 30 MIN INTERVALS FOR 6 DOSES, FIRST DOSE GIVEN SIMULTANEOUSLY WITH CARCINOGEN DOSE (STUDY DURAT, Target Tissue: Type of Lesion: PANCREAS: DUCTULAR ADENOMA, Dose [Carcinogen]: 20 MG/KG BW IN PHYSIOLOGICAL SALINE ONCE) 31/40 (78%), 23/39 (59%), 24%, not calculated; (Dose [Inhibitor]: 20 IDU/KG BW INJECTED AT 30 MIN INTERVALS FOR 6 DOSES, FIRST DOSE GIVEN SIMULTANEOUSLY WITH CARCINOGEN DOSE (STUDY DURAT, Target Tissue: Type of Lesion: PANCREAS: DUCTULAR PROLIFERATION, Dose [Carcinogen]: 20 MG/KG BW IN PHYSIOLOGICAL SALINE ONCE) 37/40 (92%), 35/39 (90%), 2%, not calculated; (Dose [Inhibitor]: 20 IDU/KG BW INJECTED AT 30 MIN INTERVALS FOR 6 DOSES, FIRST DOSE GIVEN SIMULTANEOUSLY WITH EACH CARCINOGEN DOSE (STUDY, Target Tissue: Type of Lesion: PANCREAS: DUCTAL ADENOMA, Dose [Carcinogen]: 2.5 MG/KG BW IN PHYSIOLOGICAL SALINE 1/WK FOR 20 WK) 17/25 (68%), 21/24 (88%), -29%, not calculated. The “tumour outcome (control, treated, inhibition, significance)” value reads like this: (Dose [Inhibitor]: 20 IDU/KG BW INJECTED AT 30 MIN INTERVALS FOR 6 DOSES, FIRST DOSE GIVEN SIMULTANEOUSLY WITH EACH CARCINOGEN DOSE (STUDY, Target Tissue: Type of Lesion: PANCREAS: DUCTAL PROLIFERATION, Dose [Carcinogen]: 2.5 MG/KG BW IN PHYSIOLOGICAL SALINE 1/WK FOR 20 WK) 22/25 (88%), 22/24 (92%), -5%, not calculated; (Dose [Inhibitor]: 20 IDU/KG BW INJECTED AT 30 MIN INTERVALS FOR 6 DOSES, FIRST DOSE GIVEN SIMULTANEOUSLY WITH EACH CARCINOGEN DOSE (STUDY, Target Tissue: Type of Lesion: PANCREAS: DUCTAL/DUCTULAR CARCINOMA, Dose [Carcinogen]: 2.5 MG/KG BW IN PHYSIOLOGICAL SALINE 1/WK FOR 20 WK) 15/25 (60%), 18/24 (75%), -25%, not calculated; (Dose [Inhibitor]: 20 IDU/KG BW INJECTED AT 30 MIN INTERVALS FOR 6 DOSES, LAST DOSE 3 HR PRIOR TO CARCINOGEN DOSE (STUDY DURATION: 46 WK), Target Tissue: Type of Lesion: PANCREAS: DUCTAL/DUCTULAR CARCINOMA, Dose [Carcinogen]: 20 MG/KG BW IN PHYSIOLOGICAL SALINE ONCE) 21/40 (52%), 8/37 (22%), 58%, p<0.025; (Dose [Inhibitor]: 20 IDU/KG BW INJECTED AT 30 MIN INTERVALS FOR 6 DOSES, LAST DOSE 3 HR PRIOR TO CARCINOGEN DOSE (STUDY DURATION: 46 WK), Target Tissue: Type of Lesion: PANCREAS: DUCTULAR ADENOMA, Dose [Carcinogen]: 20 MG/KG BW IN PHYSIOLOGICAL SALINE ONCE) 31/40 (78%), 19/37 (51%), 35%, not calculated; (Dose [Inhibitor]: 20 IDU/KG BW INJECTED AT 30 MIN INTERVALS FOR 6 DOSES, LAST DOSE 3 HR PRIOR TO CARCINOGEN DOSE (STUDY DURATION: 46 WK), Target Tissue: Type of Lesion: PANCREAS: DUCTULAR PROLIFERATION, Dose [Carcinogen]: 20 MG/KG BW IN PHYSIOLOGICAL SALINE ONCE) 37/40 (92%), 33/37 (89%), 3%, not calculated; (Dose [Inhibitor]: 20 IDU/KG BW INJECTED AT 30 MIN INTERVALS FOR 6 DOSES, LAST DOSE GIVEN 3 HR PRIOR TO EACH CARCINOGEN DOSE (STUDY DURATIO, Target Tissue: Type of Lesion: PANCREAS: DUCTAL ADENOMA, Dose [Carcinogen]: 2.5 MG/KG BW IN PHYSIOLOGICAL SALINE 1/WK FOR 20 WK) 17/25 (68%), 25/29 (89%), -31%, not calculated. Besides, the “tumour outcome (control, treated, inhibition, significance)” value is reported as 22/25 (88%), 24/29 (86%), 2%, not calculated (Dose [Inhibitor]: 20 IDU/KG BW INJECTED AT 30 MIN INTERVALS FOR 6 DOSES, LAST DOSE GIVEN 3 HR PRIOR TO EACH CARCINOGEN DOSE (STUDY DURATIO, Target Tissue: Type of Lesion: PANCREAS: DUCTAL PROLIFERATION, Dose [Carcinogen]: 2.5 MG/KG BW IN PHYSIOLOGICAL SALINE 1/WK FOR 20 WK) and 15/25 (60%), 23/29 (82%), -37%, not calculated (Dose [Inhibitor]: 20 IDU/KG BW INJECTED AT 30 MIN INTERVALS FOR 6 DOSES, LAST DOSE GIVEN 3 HR PRIOR TO EACH CARCINOGEN DOSE (STUDY DURATIO, Target Tissue: Type of Lesion: PANCREAS: DUCTAL/DUCTULAR CARCINOMA, Dose [Carcinogen]: 2.5 MG/KG BW IN PHYSIOLOGICAL SALINE 1/WK FOR 20 WK).
